# Test results published in patent US20260297060A1, “COMPOUNDS FOR THE DEGRADATION OF MUTANT BRAF” (C4 THERAPEUTICS, INC., priority 2023, published 2026).
# Like-named read-outs stand apart in the source and are kept apart here.
# Experiment: Pharmacokinetics after 21 days dosing in the efficacy study (plasma, tumor and brain concentrations; plasma AUC at steady state), Example 14
# Format: in vivo, female BALB/c nude mice
# Settings: for Concentration in Brain / concentration at 24 h: 24 h; for Concentration in Brain: BQL: below the lower limit of quantitation; for concentration at 4 h / concentration at 24 h / concentration at 0.25 h / concentration at 0.5 h / concentration at 1 h / concentration at 2 h / concentration at 8 h / concentration at 10 h: mouse, po
# Experimental: Agents were tested in the A375 human melanoma xenografts. Compound 26 and Compound 141 were administered to BALB/c nude mice bearing A375 tumors from PG-DO and dosed via PO twice a day (BID) or third a day (TIP) or dosed P daily (QD) from PG-D. Dabrafenib was administered to BALB/c nude mice bearing A375 tumors from PG-D1 and dosed via P daily (QD). Compound 26 was dosed at 1.5 mg/kg (QD), 2 mg/kg (TID), 3 mg/kg (BID), 6 mg/kg (QD) and 10 mg/kg (BID) for 21 days. Compound 141 was dosed at 0.75 mg/kg (BID), 1 mg/kg (TID), 1.5 mg/kg (BID), 3 mg/kg (QD) and 5 mg/kg (BID) for 21 days. Dabrafenib was dosed at 100 mg/kg for 21 days. This study was non-GLP.
# The plasma samples were collected at predetermined time points for PK analysis. For non-termination plasma collection: the blood samples were collected into the 1.5 mL Eppendorf tubes containing 3 μL of 0.5 M EDTA-K2. And then the anticoagulant blood samples were centrifuged at 2,500 g at 4° C. for 15 minutes. For termination plasma collection: the mice was euthanized at predetermined time points post the treatment, the blood samples were collected into the 1.5 mL Eppendorf tubes containing 15 μL of 0.5 M EDTA-K2. And then the anticoagulant blood samples were centrifuged at 2,500 g at 4° C. for 15 minutes. The plasma samples were separated into 2 aliquots. The 1st was used for PK analysis, and the 2nd was served as backup.
# The tumor samples were collected at predetermined time points for PK and WB analysis. The tumor was dissected out and split into 3 parts. The 1st part was used for PK analysis, the 2nd part was used for WB analysis and the last one was used as backup for the study. The samples were transferred into pre-labeled tubes and quickly froze in liquid nitrogen within 2 minutes after dissection. The samples were stored at −80° C. before analysis.
# The brain samples were collected at predetermined time points for PK and potential WB analysis. The brain was dissected out and split into 3 parts (left brain, right brain upper and right brain lower), the left brain was used for PK, the right brain upper was used for WB and the last one was used as the backup for the study. The samples were transferred into pre-labeled tubes and quickly froze in liquid nitrogen within 2 minutes after dissection. The samples were stored at −80° C. before analysis.
# The harvested plasma and tumor samples were processed for pharmacokinetics analysis by LC-MS/MS with a concentration range of 1.00-1,000 ng/mL for dabrafenib in plasma and 0.0500-50 ng/mL in tumor and brain homogenate, 5.00-10,000 ng/mL for Compound 141 in plasma and 0.200~200 ng/ml in tumor and brain homogenate. 20.0~20,000 ng/mL for Compound 26 in plasma and 0.5~500 ng/mL for Compound 26 tumor and brain homogenate.
# Dabrafenib, Compound 26 and Compound 141 in female BALB/c nude mice plasma (K2-EDTA), tumor and brain homogenate were analyzed by LC-MS/MS (Triple Quad 6500+ Low Mass). Verapamil (5 ng/mL) in acetonitrile: methanol (V: V=95:5) was used as the internal standard for Dabrafenib, Compound 26 and Compound 141 in plasma. Verapamil (0.5 ng/mL) in acetonitrile: methanol (V: V=95:5) was used as the internal standard for Dabrafenib, Compound 26 and Compound 141 in tumor and brain homogenate.
# An aliquot of 10 μL unknown sample, calibration standard, quality control, dilute quality control, single blank and double blank samples were added to the 96-well plate. Each sample for Dabrafenib, Compound 26 and Compound 141 in plasma (except the double blank) was quenched with 200 μL IS respectively (double blank sample was quenched with 200 μL ACN: MeOH (V: V=95:5)); each sample for Dabrafenib, Compound 26 and Compound 141 in tumor and brain(except the double blank) was quenched with 100 μL IS respectively (double blank sample was quenched with 100 μL ACN: MeOH (V: V=95:5)); and then the mixture was vortex-mixed for 5 min at 800 rpm and centrifuged for 15 min at 3220 g (4000 rpm), 4° C. […]
# [1] = plasma, 0.75 mg/kg p.o. BID x 21 days, mean ± SEM
# [2] = plasma, 0.75 mg/kg p.o. BID x 21 days, mean ± SEM, read-out: Concentration in Plasma
# [3] = plasma, 1 mg/kg p.o. TID x 21 days, mean ± SEM
# [4] = plasma, 1 mg/kg p.o. TID x 21 days, mean ± SEM, read-out: Concentration in Plasma
# [5] = plasma, 1.5 mg/kg p.o. BID x 21 days, mean ± SEM
# [6] = plasma, 1.5 mg/kg p.o. BID x 21 days, mean ± SEM, read-out: Concentration in Plasma
# [7] = plasma, 3 mg/kg p.o. QD x 21 days, mean ± SEM
# [8] = plasma, 3 mg/kg p.o. QD x 21 days, mean ± SEM, read-out: Concentration in Plasma
# [9] = plasma, 5 mg/kg p.o. BID x 21 days, mean ± SEM
# [10] = plasma, 5 mg/kg p.o. BID x 21 days, mean ± SEM, read-out: Concentration in Plasma
# [11] = tumor, 1 mg/kg p.o. TID x 21 days, mean ± SEM, read-out: Concentration in Tumor
# [12] = tumor, 1.5 mg/kg p.o. BID x 21 days, mean ± SEM, read-out: Concentration in Tumor
compound,measurement,setting,value
"CCN(C)S(=O)(=O)Nc1ccc(F)c(Oc2ccc3ncn(C4CC5(CCN(C6CC7(C6)CN(c6cc8c(cc6F)c(N6CCC(=O)NC6=O)nn8C)C7)CC5)C4)c(=O)c3c2)c1C#N (stereo not drawn) [Compound 141, 6-[2-cyano-3-[[ethyl(methyl)sulfamoyl]amino]-6-fluoro-phenoxy]-3-[7-[2-[3-(2,4-dioxohexahydropyrimidin-1-yl)-5-fluoro-1-methyl-indazol-6-yl]-2-azaspiro[3.3]heptan-6-yl]-7-azaspiro[3.5]nonan-2-yl]-4-oxo-quinazoline]",Concentration in Brain,0.75 mg/kg p.o. BID x 21 days,BQL
same,Concentration in Brain,1 mg/kg p.o. TID x 21 days,BQL
same,Concentration in Brain,1.5 mg/kg p.o. BID x 21 days,BQL
same,Concentration in Brain,3 mg/kg p.o. QD x 21 days,BQL
same,concentration at 4 h,"brain, 0.75 mg/kg p.o. BID x 21 days, mean ± SEM, read-out: Concentration in Brain",10.7 ± 2.04 ng/g
same,concentration at 4 h,"brain, 1 mg/kg p.o. TID x 21 days, mean ± SEM, read-out: Concentration in Brain",12.4 ± 2.79 ng/g
same,concentration at 4 h,"brain, 1.5 mg/kg p.o. BID x 21 days, mean ± SEM, read-out: Concentration in Brain",10.1 ± 1.79 ng/g
same,concentration at 4 h,"brain, 3 mg/kg p.o. QD x 21 days, mean ± SEM, read-out: Concentration in Brain",22.9 ± 2.7 ng/g
same,concentration at 4 h,"brain, 5 mg/kg p.o. BID x 21 days, mean ± SEM, read-out: Concentration in Brain",51.4 ± 21.7 ng/g
same,concentration at 24 h,"brain, 5 mg/kg p.o. BID x 21 days, read-out: Concentration in Brain",2.25 ng/g
same,concentration at 0.25 h,[1],369 ± 64.7 ng/mL
same,concentration at 0.5 h,[1],732 ± 139 ng/mL
same,concentration at 1 h,[1],1140 ± 226 ng/mL
same,concentration at 2 h,[1],1280 ± 277 ng/mL
same,concentration at 4 h,[2],663 ± 79 ng/mL
same,concentration at 8 h,[1],432 ± 45.3 ng/mL
same,concentration at 10 h,[1],343 ± 34.9 ng/mL
same,concentration at 24 h,[2],10.8 ± 2.44 ng/mL
same,concentration at 0.25 h,[3],950 ± 130 ng/mL
same,concentration at 0.5 h,[3],1750 ± 165 ng/mL
same,concentration at 1 h,[3],1930 ± 416 ng/mL
same,concentration at 2 h,[3],1760 ± 262 ng/mL
same,concentration at 4 h,[4],850 ± 185 ng/mL
same,concentration at 8 h,[3],780 ± 53.4 ng/mL
same,concentration at 10 h,[3],676 ± 42.5 ng/mL
same,concentration at 24 h,[4],33.7 ± 4.48 ng/mL
same,concentration at 0.25 h,[5],702 ± 91.7 ng/mL
same,concentration at 0.5 h,[5],1360 ± 270 ng/mL
same,concentration at 1 h,[5],1940 ± 211 ng/mL
same,concentration at 2 h,[5],2120 ± 241 ng/mL
same,concentration at 4 h,[6],950 ± 365 ng/mL
same,concentration at 8 h,[5],523 ± 19.7 ng/mL
same,concentration at 10 h,[5],328 ± 12.4 ng/mL
same,concentration at 24 h,[6],11.2 ± 2.61 ng/mL
same,concentration at 0.25 h,[7],1580 ± 247 ng/mL
same,concentration at 0.5 h,[7],2850 ± 361 ng/mL
same,concentration at 1 h,[7],5130 ± 799 ng/mL
same,concentration at 2 h,[7],5290 ± 555 ng/mL
same,concentration at 4 h,[8],2430 ± 222 ng/mL
same,concentration at 8 h,[7],869 ± 101 ng/mL
same,concentration at 10 h,[7],617 ± 41.7 ng/mL
same,concentration at 24 h,[8],12.2 ± 1.4 ng/mL
same,concentration at 0.25 h,[9],2930 ± 226 ng/mL
same,concentration at 0.5 h,[9],6300 ± 457 ng/mL
same,concentration at 1 h,[9],6340 ± 1160 ng/mL
same,concentration at 2 h,[9],6130 ± 1280 ng/mL
same,concentration at 4 h,[10],3730 ± 1140 ng/mL
same,concentration at 8 h,[9],3260 ± 243 ng/mL
same,concentration at 10 h,[9],2370 ± 37.1 ng/mL
same,concentration at 24 h,[10],38.9 ± 5.18 ng/mL
same,concentration at 4 h,"tumor, 0.75 mg/kg p.o. BID x 21 days, mean ± SEM, read-out: Concentration in Tumor",160 ± 24.9 ng/g
same,concentration at 24 h,"tumor, 0.75 mg/kg p.o. BID x 21 days, read-out: Concentration in Tumor",33 ng/g
same,concentration at 4 h,[11],390 ± 107 ng/g
same,concentration at 24 h,[11],14.3 ± 4.44 ng/g
same,concentration at 4 h,[12],317 ± 61.6 ng/g
same,concentration at 24 h,[12],6.7 ng/g
same,concentration at 4 h,"tumor, 3 mg/kg p.o. QD x 21 days, mean ± SEM, read-out: Concentration in Tumor",909 ± 165 ng/g
same,concentration at 24 h,"tumor, 3 mg/kg p.o. QD x 21 days, read-out: Concentration in Tumor",3.01 ng/g
same,concentration at 4 h,"tumor, 5 mg/kg p.o. BID x 21 days, mean ± SEM, read-out: Concentration in Tumor",1300 ± 471 ng/g
same,concentration at 24 h,"tumor, 5 mg/kg p.o. BID x 21 days, read-out: Concentration in Tumor",79.3 ng/g
